According to PubChem BioAssay (NCI):
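Exposure lasted 48 hours, with cells grown in 96-well plates and compounds tested at five concentrations. GI50 is the concentration that inhibits growth by half. Definition used: TGI = concentration required for complete inhibition of growth.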

The compounds below were run on NCI-H460 lung (assay: DTP human tumour cell line panel, 48 h).

SMILES	GI50	TGI
Cc1c(C2Nc3ccccc3C2C)[nH]c2ccccc12 (centres undefined)	0.43 µM	18.3 µM
CCOC(=O)CCc1c(C)c2c(OC(C)=O)cc(OC(C)=O)cc2oc1=O		91.1 µM
COc1cc(NC(C)CCCN)c2nccc(C)c2c1OC (centres undefined)	14.1 µM	29.5 µM
O=C(CN1CCCCC1)N1CCc2c([nH]c3ccccc23)C1c1cccnc1 (centres undefined)		> 100 µM
O=C(O)c1cccc(OCCO)c1		> 100 µM
COc1ccc(C2C(C#N)=C(N)OC3=C2COc2ccc(F)cc23)cc1OC (centres undefined)	40 µM	> 100 µM
Cc1cc(C)n(CCNCCn2nc(C)cc2C)n1		> 100 µM
O=C(Nc1cccc(Cl)c1Cl)c1cccc(NC2=C(Cl)C(=O)N(Cc3ccccc3)C2=O)c1	22.4 µM	94.7 µM
O=C(/C=C/c1ccccc1)/C=C/c1ccccc1		65.5 µM
CCOC(=O)C1=C(C)N(N)C(=S)NC1c1ccc(C)cc1 (centres undefined)	24.4 µM	> 100 µM
N#CC(C#N)=c1[nH]c2cccc3c2-c2c(cccc2c3=C(C#N)C#N)[nH]1		> 100 µM

The compounds below were run on OVCAR-3 ovarian (assay: DTP human tumour cell line panel, 48 h).

SMILES	TGI	GI50
N#CC1(C2SCCS2=O)C2=C(C(=O)c3ccccc3C2=O)N2CCCC21 (centres undefined)	2.04 µM	
O=S(O)CCCCSSCc1ccccc1CSSCCCCS(=O)O	25.2 µM	
Cc1n(Cc2ccc3ccccc3c2)cc[n+]1Cc1ccc2ccccc2c1	2.06 µM	0.521 µM
O=C(O)Cc1c(O)ccc2ccccc12	> 100 µM	
CSC1(CC(=O)N(C)C)C(=O)Nc2ccccc21 (centres undefined)	> 100 µM	
COc1cc(/C=C2\C(=O)Nc3ccc(F)cc32)cc(OC)c1OC	> 100 µM	22.8 µM
C#C[C@]1(O)CC[C@H]2[C@@H]3CC=C4c5sc(Nc6ccccc6)nc5CC[C@]4(C)[C@H]3CC[C@@]21C	5.34 µM	1.89 µM
O=C(O)c1c(-c2nccc3ccccc23)[nH]c(-c2ccccc2)c1S(=O)(=O)O	> 100 µM	
Cc1cn2c(/C=C3/C(=O)Nc4ccccc43)c(-c3ccc(Cl)cc3)nc2s1	17.9 µM	9.82 µM
O=C(CCC/C(CC(=O)c1ccc(Br)cc1)=N\O)Nc1ccccc1	> 100 µM	
Cc1c[n+](Cc2ccc3ccccc3c2)cn1Cc1ccc2ccccc2c1	2.28 µM	1.04 µM
COc1ccccc1NC(=O)C1=C(C)NC(C)=C(C(=O)Nc2ccccc2OC)C1c1ccc([N+](=O)[O-])cc1	> 100 µM	
O=C(CSc1nnc(-c2ccccc2NC(=O)C(F)(F)F)c(=O)[nH]1)NC(=O)Nc1ccccc1	> 100 µM	
CN1CCc2c(Sc3ccc(C(=O)NO)cc3)c3ccccc3n2C1	6.74 µM	2.16 µM
CN(C)c1ccc2nc3ccc(=O)cc-3sc2c1	> 28.1 µM	0.598 µM
CC(=O)c1c(CBr)n([O-])c2ccccc2[n+]1=O	7.67 µM	3.14 µM
C#CC(=O)Nc1cccc(Nc2nc3c(c(NCc4ccccc4)n2)CCCC3)c1	0.175 µM	0.042 µM
COc1ccc(C(=O)C(CO)Oc2ccccc2OC)cc1OC (centres undefined)	> 100 µM	
CN=NN(C)C(=O)NC	> 100 µM	
c1ccc2c3ccn4cc5c(cc4c-3nc2c1)CCCC5	8.84 µM	3.31 µM
N#CC1Nc2ccccc2[C@@H](O)C1O (some centres undefined)	> 100 µM	
CC(C)c1ccccc1S(=O)c1ccccc1C(C)(C)O (centres undefined)	> 100 µM	
Cc1c(C2Nc3ccccc3C2C)[nH]c2ccccc12 (centres undefined)	27.2 µM	11.6 µM
CCOC(=O)CCc1c(C)c2c(OC(C)=O)cc(OC(C)=O)cc2oc1=O	83.3 µM	
COc1cc(NC(C)CCCN)c2nccc(C)c2c1OC (centres undefined)	10.1 µM	3.17 µM
O=C(CN1CCCCC1)N1CCc2c([nH]c3ccccc23)C1c1cccnc1 (centres undefined)	> 100 µM	
COc1cc2cn3c4ccc(O)cc4[nH]c(=O)c3c2cc1OC	0.214 µM	< 0.01 µM
O=C(O)c1cccc(OCCO)c1	> 100 µM	
COc1ccc(C2C(C#N)=C(N)OC3=C2COc2ccc(F)cc23)cc1OC (centres undefined)	43.5 µM	17.5 µM
